For the experiment, the system named is human liver cancer HepG2. Nature of the experiment: Liver cancer model, Experiment A: HepG2 xenograft. The format is in vivo, Crl:SHO-PrkdcscidHrhr mice. The note with it: 50 mg/kg i.v. six times every second day, 42th day. As to the method:
Tumor size was measured using electronic calliper, tumor volume was calculated using the formula: (a^2×b)/2, where a=shorter diagonal of the tumor (mm) and b=longer diagonal of the tumor (mm). Inhibition of tumor growth was calculated using the formula:
TGI[%](Tumor growth inhibition)=(WT/WC)×100−100%
wherein WT is the average tumor volume in the treatment group, and WC is the average tumor volume in the control group.
On day 0 Crl:SHO-Prkdc^scidHr^hr mice were grafted subcutaneously (s.c.) in the right flank region with 7×10^6 of HepG2 cells suspended in 0.1 ml of the 3:1 mixture HBSS buffer:Matrigel using syringe with a 0.5×25 mm needle (Bogmark). When tumors reached the size of 64-529 mm^3 (day 25), mice were randomized to obtain the average size of tumors in the group of −230 mm^3 and assigned to treatment groups. The treatment groups were administered with the preparations of fusion protein of the invention of Ex. 16^b (80 mg/kg) and rhTRAIL114-281 (50 mg/kg) as a comparison and reference compound 5-FU (5-Fluorouracil, Sigma-Aldrich) (20 mg/kg). The preparations were administered intravenously (i.v.) six times every second day, 5-FU was applied intraperitoneally (i.p.). The control group received formulation buffer.
When the therapeutic group reached the average tumor size of ˜1000 mm^3, mice were sacrificed by cervical dislocation.

These results are taken from patent publication US20140377216A1, “ANTICANCER FUSION PROTEIN” (ADAMED SP. Z.O.O., priority 2011, published 2014).

Turning to “rhTRAIL114-281: recombinant human soluble TRAIL, amino acids 114-281 of hTRAIL, used as comparative reference”, the “TGI (tumor growth inhibition) relative to the control” value is reported as 23.2%.
